Values after ≈ are worked out from the molar mass of the structure shown.
What was measured:
[1] = Clearance in Beagle dog at 0.4 mg/kg, iv by LC/MS/MS analysis; format: ADME, organism-based, Canis lupus familiaris; parameters: dose 0.4 mg/kg, route intravenous; conditions: in vivo
[2] = AUC in Beagle dog at 2 mg/kg, po by LC/MS/MS analysis; format: ADME, organism-based, Canis lupus familiaris; parameters: dose 2 mg/kg, route oral; conditions: plasma
[3] = Metabolic stability in dog hepatocytes assessed as hepatic clearance; format: ADME, cell-based, Canis lupus familiaris, Liver, Hepatocyte
[4] = molecular target: T1, Non-receptor tyrosine-protein kinase TYK2 (Homo sapiens, UniProt P29597)
[5] = Oral bioavailability in Beagle dog at 2 mg/kg by LC/MS/MS analysis; format: ADME, organism-based, Canis lupus familiaris; conditions: Beagle, in vivo
[6] = molecular target: T2, Tyrosine-protein kinase JAK1 (Homo sapiens, UniProt P23458)
[7] = Apparent permeability across basolateral to apical side in dog MDCK cells; format: ADME, cell-based, Canis lupus familiaris
[8] = Thermodynamic solubility in aqueous buffer at pH 2; format: physicochemical; conditions: read-out: Therm_solubility
[9] = AUC in Sprague-Dawley rat at 2 mg/kg, po by LC/MS/MS analysis; format: ADME, organism-based; parameters: dose 2 mg/kg, route oral; conditions: plasma
[10] = Apparent permeability across apical to basolateral side in dog MDCK cells; format: ADME, cell-based, Canis lupus familiaris
Cytochrome P450 1A2 = molecular target: T3, Cytochrome P450 1A2 (Homo sapiens, UniProt P05177); assay: Reversible inhibition of CYP1A2 in human liver microsomes using phenacetin as substrate by LC/MS/MS analysis; format: ADME, Microsome
T3 sequence (P05177 whole entry): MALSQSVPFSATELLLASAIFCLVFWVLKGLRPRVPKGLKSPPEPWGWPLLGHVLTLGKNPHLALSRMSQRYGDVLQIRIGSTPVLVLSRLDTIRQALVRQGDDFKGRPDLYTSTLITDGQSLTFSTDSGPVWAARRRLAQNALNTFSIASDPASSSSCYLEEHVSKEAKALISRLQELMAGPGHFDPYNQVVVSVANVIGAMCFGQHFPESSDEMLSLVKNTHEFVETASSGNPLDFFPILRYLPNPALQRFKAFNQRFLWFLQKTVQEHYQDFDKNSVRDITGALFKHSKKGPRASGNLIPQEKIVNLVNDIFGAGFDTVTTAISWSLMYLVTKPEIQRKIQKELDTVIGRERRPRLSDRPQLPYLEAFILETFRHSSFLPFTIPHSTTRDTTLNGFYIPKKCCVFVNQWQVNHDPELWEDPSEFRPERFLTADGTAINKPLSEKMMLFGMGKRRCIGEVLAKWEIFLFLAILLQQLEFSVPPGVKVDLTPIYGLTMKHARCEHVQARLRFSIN

[11] = Metabolic stability in rat hepatocytes assessed as hepatic clearance; format: ADME, cell-based, Liver, Hepatocyte
[12] = Plasma protein binding in cynomolgus monkey; format: ADME, cell-free, Macaca fascicularis; conditions: read-out: PPB (converted)
Cytochrome P450 2C19 = Cytochrome P450 2C19 (Homo sapiens, UniProt P33261)
[13] = Metabolic stability in monkey hepatocytes assessed as hepatic clearance; format: ADME, cell-based, Macaca mulatta, Liver, Hepatocyte; conditions: rhesus monkey
[14] = Clearance in Sprague-Dawley rat at 0.4 mg/kg, iv by LC/MS/MS analysis; format: ADME, organism-based; parameters: dose 0.4 mg/kg, route intravenous; conditions: in vivo
Cytochrome P450 2C9 = Cytochrome P450 2C9 (Homo sapiens, UniProt P11712)
[15] = Thermodynamic solubility in aqueous buffer at pH 7.4; format: physicochemical; conditions: read-out: Therm_solubility
[16] = molecular target: Tyrosine-protein kinase JAK3 (Homo sapiens, UniProt P52333)
[17] = Hepatic clearance in human liver microsomes by LC/MS/MS analysis; format: ADME, Microsome
[18] = Plasma protein binding in dog; format: ADME, cell-free, Canis lupus familiaris; conditions: read-out: PPB (converted)
[19] = Cmax in Beagle dog at 2 mg/kg, po by LC/MS/MS analysis; format: ADME, organism-based, Canis lupus familiaris; parameters: dose 2 mg/kg, route oral; conditions: in vivo
Cytochrome P450 3A4 [20] = molecular target: T4, Cytochrome P450 3A4 (Homo sapiens, UniProt P08684); assay: Reversible inhibition of CYP3A4 in human liver microsomes using testosterone as substrate by LC/MS/MS analysis; format: ADME, Microsome
[21] = Cmax in Sprague-Dawley rat at 2 mg/kg, po by LC/MS/MS analysis; format: ADME, organism-based; parameters: dose 2 mg/kg, route oral; conditions: in vivo
[22] = Plasma protein binding in rat; format: ADME, cell-free; conditions: read-out: PPB (converted)
[23] = molecular target: T2, Tyrosine-protein kinase JAK1; remark: listed apart in the source
[24] = molecular target: T1, Non-receptor tyrosine-protein kinase TYK2; remark: listed apart in the source
Cytochrome P450 2D6 = Cytochrome P450 2D6 (Homo sapiens, UniProt P10635)
[25] = molecular target: T2, Tyrosine-protein kinase JAK1; remark: listed apart in the source
[26] = molecular target: Voltage-gated inwardly rectifying potassium channel KCNH2 (Homo sapiens, UniProt Q12809)
[27] = Hepatic clearance in human hepatocytes after 1 to 4 hrs by LC/MS/MS analysis; format: ADME, cell-based, Liver, Hepatocyte
[28] = Half life in Sprague-Dawley rat at 0.4 mg/kg, iv by LC/MS/MS analysis; format: ADME, organism-based; parameters: dose 0.4 mg/kg, route intravenous; conditions: in vivo
Cytochrome P450 3A4 [29] = molecular target: T4, Cytochrome P450 3A4; assay: Reversible inhibition of CYP3A4 in human liver microsomes using midazolam as substrate by LC/MS/MS analysis; format: ADME, Microsome
[30] = Half life in Beagle dog at 0.4 mg/kg, iv by LC/MS/MS analysis; format: ADME, organism-based, Canis lupus familiaris; parameters: dose 0.4 mg/kg, route intravenous; conditions: in vivo
[31] = Oral bioavailability in Sprague-Dawley rat at 2 mg/kg by LC/MS/MS analysis; format: ADME, organism-based; conditions: Sprague-Dawley, in vivo
[32] = Half life in cynomolgus monkey at 0.4 mg/kg, iv by LC/MS/MS analysis; format: ADME, organism-based, Macaca fascicularis; parameters: dose 0.4 mg/kg, route intravenous; conditions: in vivo
[33] = Clearance in cynomolgus monkey at 0.4 mg/kg, iv by LC/MS/MS analysis; format: ADME, organism-based, Macaca fascicularis; parameters: dose 0.4 mg/kg, route intravenous; conditions: in vivo
[34] = Cmax in cynomolgus monkey at 2 mg/kg, po by LC/MS/MS analysis; format: ADME, organism-based, Macaca fascicularis; parameters: dose 2 mg/kg, route oral; conditions: in vivo
[35] = Oral bioavailability in cynomolgus monkey at 2 mg/kg by LC/MS/MS analysis; format: ADME, organism-based, Macaca fascicularis; conditions: in vivo
[36] = AUC in cynomolgus monkey at 2 mg/kg, po by LC/MS/MS analysis; format: ADME, organism-based, Macaca fascicularis; parameters: dose 2 mg/kg, route oral; conditions: plasma
[37] = molecular target: Leucine-rich repeat serine/threonine-protein kinase 2 (Homo sapiens) (UniProt Q5S007); assay: Inhibition of LRRK2 (unknown origin) at 1 uM
[38] = molecular target: Macrophage colony-stimulating factor 1 receptor (Homo sapiens) (UniProt P07333); assay: Inhibition of CSF1R (unknown origin) at 1 uM

T4 sequence (P08684 whole entry): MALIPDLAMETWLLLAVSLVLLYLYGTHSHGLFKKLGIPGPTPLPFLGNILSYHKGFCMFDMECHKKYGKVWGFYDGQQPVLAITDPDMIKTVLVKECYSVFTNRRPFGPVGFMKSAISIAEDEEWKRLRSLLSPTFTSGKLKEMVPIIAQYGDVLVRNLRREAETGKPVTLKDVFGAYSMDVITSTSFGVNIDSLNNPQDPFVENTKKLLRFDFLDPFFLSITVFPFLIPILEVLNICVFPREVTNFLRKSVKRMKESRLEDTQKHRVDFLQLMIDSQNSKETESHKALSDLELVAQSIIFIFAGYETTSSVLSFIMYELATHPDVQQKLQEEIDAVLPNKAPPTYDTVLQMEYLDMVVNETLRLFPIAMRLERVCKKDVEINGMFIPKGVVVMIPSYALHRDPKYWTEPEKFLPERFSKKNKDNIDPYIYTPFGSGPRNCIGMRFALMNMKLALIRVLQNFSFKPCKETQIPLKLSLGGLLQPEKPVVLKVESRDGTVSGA
Tyrosine-protein kinase JAK3, sequence (P52333 whole entry): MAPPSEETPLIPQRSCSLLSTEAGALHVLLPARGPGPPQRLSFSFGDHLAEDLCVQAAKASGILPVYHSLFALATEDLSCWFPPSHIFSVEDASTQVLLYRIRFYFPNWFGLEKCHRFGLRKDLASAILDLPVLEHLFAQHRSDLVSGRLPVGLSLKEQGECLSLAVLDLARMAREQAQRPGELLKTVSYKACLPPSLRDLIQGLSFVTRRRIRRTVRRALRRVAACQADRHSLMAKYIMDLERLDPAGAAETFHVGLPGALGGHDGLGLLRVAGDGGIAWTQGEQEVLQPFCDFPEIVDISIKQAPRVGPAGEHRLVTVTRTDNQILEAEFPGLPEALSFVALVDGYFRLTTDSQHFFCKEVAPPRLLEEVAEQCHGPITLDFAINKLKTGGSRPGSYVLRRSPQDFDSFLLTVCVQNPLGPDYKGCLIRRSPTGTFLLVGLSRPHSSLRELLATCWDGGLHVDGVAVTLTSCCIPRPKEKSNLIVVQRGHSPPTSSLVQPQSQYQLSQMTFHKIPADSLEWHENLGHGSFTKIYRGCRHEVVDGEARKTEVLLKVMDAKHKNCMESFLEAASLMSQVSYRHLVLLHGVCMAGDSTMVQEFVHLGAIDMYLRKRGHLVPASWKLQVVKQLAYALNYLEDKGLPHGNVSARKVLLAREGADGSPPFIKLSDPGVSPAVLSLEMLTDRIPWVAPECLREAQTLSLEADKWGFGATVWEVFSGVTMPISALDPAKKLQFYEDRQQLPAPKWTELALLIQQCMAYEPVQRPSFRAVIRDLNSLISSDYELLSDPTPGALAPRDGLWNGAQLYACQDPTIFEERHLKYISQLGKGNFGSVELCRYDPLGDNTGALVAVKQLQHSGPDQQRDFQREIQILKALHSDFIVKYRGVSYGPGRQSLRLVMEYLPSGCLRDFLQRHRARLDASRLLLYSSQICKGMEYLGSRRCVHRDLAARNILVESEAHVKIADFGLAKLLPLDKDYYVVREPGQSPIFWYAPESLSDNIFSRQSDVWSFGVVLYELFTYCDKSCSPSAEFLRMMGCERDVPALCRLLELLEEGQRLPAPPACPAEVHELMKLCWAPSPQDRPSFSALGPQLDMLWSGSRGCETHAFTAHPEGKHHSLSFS
Cytochrome P450 2C19, sequence (P33261 whole entry): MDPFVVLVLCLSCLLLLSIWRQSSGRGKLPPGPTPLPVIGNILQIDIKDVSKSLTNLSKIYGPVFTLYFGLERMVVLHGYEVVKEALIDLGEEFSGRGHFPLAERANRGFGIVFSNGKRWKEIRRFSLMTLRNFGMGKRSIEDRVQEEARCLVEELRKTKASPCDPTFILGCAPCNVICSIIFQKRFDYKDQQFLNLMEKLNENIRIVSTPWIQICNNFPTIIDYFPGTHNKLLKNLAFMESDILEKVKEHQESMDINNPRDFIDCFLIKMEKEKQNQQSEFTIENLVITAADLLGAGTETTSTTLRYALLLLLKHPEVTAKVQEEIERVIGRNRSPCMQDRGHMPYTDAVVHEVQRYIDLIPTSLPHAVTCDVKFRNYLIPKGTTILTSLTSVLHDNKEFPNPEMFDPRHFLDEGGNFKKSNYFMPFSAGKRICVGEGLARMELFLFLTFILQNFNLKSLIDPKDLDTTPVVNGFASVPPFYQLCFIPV
Cytochrome P450 2C9, sequence (P11712 whole entry): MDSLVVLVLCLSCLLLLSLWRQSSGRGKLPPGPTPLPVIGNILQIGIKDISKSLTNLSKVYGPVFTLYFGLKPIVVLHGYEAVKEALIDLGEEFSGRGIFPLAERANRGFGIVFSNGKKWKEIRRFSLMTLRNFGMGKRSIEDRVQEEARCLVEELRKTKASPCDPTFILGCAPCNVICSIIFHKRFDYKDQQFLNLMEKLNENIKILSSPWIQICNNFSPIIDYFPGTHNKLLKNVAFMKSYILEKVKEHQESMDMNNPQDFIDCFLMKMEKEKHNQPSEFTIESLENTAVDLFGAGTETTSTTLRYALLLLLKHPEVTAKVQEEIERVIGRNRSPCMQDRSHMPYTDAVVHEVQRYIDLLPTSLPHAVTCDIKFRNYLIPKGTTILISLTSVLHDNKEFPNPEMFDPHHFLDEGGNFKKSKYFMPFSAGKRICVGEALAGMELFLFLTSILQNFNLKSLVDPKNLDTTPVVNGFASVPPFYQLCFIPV
T2 sequence (P23458 whole entry): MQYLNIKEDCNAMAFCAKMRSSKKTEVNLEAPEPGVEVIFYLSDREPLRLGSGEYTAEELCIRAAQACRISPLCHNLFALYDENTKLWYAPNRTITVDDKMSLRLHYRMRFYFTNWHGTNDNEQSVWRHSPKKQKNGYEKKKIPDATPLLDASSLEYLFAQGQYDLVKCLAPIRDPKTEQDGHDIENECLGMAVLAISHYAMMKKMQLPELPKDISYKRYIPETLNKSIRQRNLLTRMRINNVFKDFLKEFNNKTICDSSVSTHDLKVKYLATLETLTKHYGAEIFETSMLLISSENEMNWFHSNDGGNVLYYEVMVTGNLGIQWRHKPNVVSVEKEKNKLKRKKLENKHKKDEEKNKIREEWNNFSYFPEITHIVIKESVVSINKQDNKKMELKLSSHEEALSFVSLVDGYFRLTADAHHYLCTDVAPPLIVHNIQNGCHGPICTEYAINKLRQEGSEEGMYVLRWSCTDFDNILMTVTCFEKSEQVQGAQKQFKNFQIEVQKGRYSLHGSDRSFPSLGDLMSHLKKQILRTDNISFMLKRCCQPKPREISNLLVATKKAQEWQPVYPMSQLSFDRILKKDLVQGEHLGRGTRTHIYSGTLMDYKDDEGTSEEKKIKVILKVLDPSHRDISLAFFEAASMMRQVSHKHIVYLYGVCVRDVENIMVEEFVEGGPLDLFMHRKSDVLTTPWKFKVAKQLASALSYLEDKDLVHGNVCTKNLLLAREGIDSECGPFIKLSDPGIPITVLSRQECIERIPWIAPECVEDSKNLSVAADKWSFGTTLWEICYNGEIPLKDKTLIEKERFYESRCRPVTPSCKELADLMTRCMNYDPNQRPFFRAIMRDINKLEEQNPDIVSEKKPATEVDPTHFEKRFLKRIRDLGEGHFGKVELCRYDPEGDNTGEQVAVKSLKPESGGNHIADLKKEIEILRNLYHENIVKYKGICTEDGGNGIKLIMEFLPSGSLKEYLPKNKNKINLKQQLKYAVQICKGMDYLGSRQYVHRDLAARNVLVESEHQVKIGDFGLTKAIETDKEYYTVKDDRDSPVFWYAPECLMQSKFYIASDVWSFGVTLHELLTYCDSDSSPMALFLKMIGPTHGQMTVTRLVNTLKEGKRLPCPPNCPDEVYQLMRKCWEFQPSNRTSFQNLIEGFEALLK
Cytochrome P450 2D6, sequence (P10635 whole entry): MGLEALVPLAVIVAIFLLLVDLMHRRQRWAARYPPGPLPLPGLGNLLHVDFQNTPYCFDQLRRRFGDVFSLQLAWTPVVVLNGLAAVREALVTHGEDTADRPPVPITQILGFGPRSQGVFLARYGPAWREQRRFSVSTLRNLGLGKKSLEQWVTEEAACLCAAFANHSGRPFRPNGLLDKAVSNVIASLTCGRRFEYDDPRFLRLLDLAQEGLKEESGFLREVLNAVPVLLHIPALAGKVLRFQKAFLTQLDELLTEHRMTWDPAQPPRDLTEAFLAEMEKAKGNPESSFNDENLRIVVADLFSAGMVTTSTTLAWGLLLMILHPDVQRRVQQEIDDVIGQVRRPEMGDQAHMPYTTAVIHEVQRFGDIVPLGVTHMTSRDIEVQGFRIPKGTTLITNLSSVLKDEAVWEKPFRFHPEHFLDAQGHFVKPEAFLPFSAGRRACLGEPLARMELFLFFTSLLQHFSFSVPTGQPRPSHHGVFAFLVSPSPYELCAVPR

Structure (SMILES) | clearance [1] [mL/min/kg] | AUC [2] [µM·h] | CLhep predicted [3] [mL/min/kg] | bioavailability [5] [%] | Papp B→A [7] [×10⁻⁶ cm/s] | solubility thermodynamic [8] [µM] | AUC [9] [µM·h] | Papp A→B [10] [×10⁻⁶ cm/s] | IC50 (Cytochrome P450 1A2) [nM] | CLhep predicted [11] [mL/min/kg] | fraction unbound [12] | IC50 (Cytochrome P450 2C19) [nM] | CLhep predicted [13] [mL/min/kg] | clearance [14] [mL/min/kg] | IC50 (Cytochrome P450 2C9) [nM] | solubility thermodynamic [15] [µM] | Ki [16] [nM] | CLhep predicted [17] [mL/min/kg] | fraction unbound [18] | Cmax [19] [nM] | other results
C[C@@H](O)c1nc2cnc3[nH]ccc3c2n1[C@H]1CC[C@H](NCC(F)(F)F)CC1 | 13 | 9.9 | 2.3 | 139 | 10 | 3900 (≈ 1490 µg/mL) | 1.4 | 6.7 | > 10000 | 11 | 0.35 | > 10000 | 26 | 36 | > 10000 | 130 (≈ 49.6 µg/mL) | 76 | 3.3 | 0.45 | 2100 | Ki [4]: 3.4 nM; EC50 [6]: 29 nM; IC50 (Cytochrome P450 3A4 [20]): > 10000 nM; Cmax [21]: 960 nM; fraction unbound [22]: 0.44; Ki [23]: 0.8 nM; EC50 [24]: 310 nM; IC50 (Cytochrome P450 2D6): > 10000 nM; EC50 [25]: 28 nM; IC50 [26]: > 100000 nM; CLhep predicted [27]: 2 mL/min/kg; half-life [28]: 0.5 h; IC50 (Cytochrome P450 3A4 [29]): > 10000 nM; half-life [30]: 1.7 h; bioavailability [31]: 54%
C[C@@H](O)c1nc2cnc3[nH]ccc3c2n1[C@H]1CC[C@H](CCC#N)CC1 | 29 | 4.3 | 11 | 125 | 9.3 | > 4000 | 0.42 | 4.7 | > 10000 | 28 | 0.24 | > 10000 | 36 | 126 | > 10000 | 16 (≈ 5.4 µg/mL) | 7.8 | 5.2 | 0.34 | 1300 | half-life [32]: 0.8 h; clearance [33]: 29 mL/min/kg; Cmax [34]: 70 nM; bioavailability [35]: 8%; IC50 (Cytochrome P450 3A4 [20]): > 10000 nM; Cmax [21]: 220 nM; fraction unbound [22]: 0.32; IC50 (Cytochrome P450 2D6): > 10000 nM; IC50 [26]: 20000 nM; CLhep predicted [27]: 5.7 mL/min/kg; half-life [28]: 0.6 h; AUC [36]: 0.26 µM·h; IC50 (Cytochrome P450 3A4 [29]): 6700 nM; half-life [30]: 1.3 h; bioavailability [31]: 50%
C[C@@H](O)c1nc2cnc3[nH]ccc3c2n1[C@H]1CC[C@@H](NCC(F)(F)F)C1 | 14 | 9 | 9.8 | 131 | 18 | > 4000 | 1 | 10 | > 10000 | 14 | 0.44 | > 10000 | 27 | 55 | > 10000 | 70 (≈ 25.7 µg/mL) | 53 | 3.8 | 0.41 | 3000 | Ki [4]: 20 nM; EC50 [6]: 51 nM; inhibition [37]: 72%; IC50 (Cytochrome P450 3A4 [20]): > 10000 nM; Cmax [21]: 980 nM; fraction unbound [22]: 0.51; inhibition [38]: 75%; Ki [23]: 2 nM; EC50 [24]: 2200 nM; IC50 (Cytochrome P450 2D6): > 10000 nM; EC50 [25]: 70 nM; CLhep predicted [27]: 3.6 mL/min/kg; half-life [28]: 1.1 h; IC50 (Cytochrome P450 3A4 [29]): > 10000 nM; half-life [30]: 1.2 h; bioavailability [31]: 61%
